This is an account of results in PubChem BioAssay AID1259407 (Chemical Carcinogenesis Research Information System (CCRIS), 2018).

Active and inactive are the calls of the source. The rule behind the calls is not given here.

The series concerns CCRIS mutagenicity, Ames/micronucleus/aberration tests. As to the kind of experiment: CCRIS mutagenicity studies.
Where [1] appears, read: Test System: AMES SALMONELLA TYPHIMURIUM, Strain/Indicator: TA98, Metabolic Activation: NONE, Method: PREINCUBATION
Setting [2] is: Test System: AMES SALMONELLA TYPHIMURIUM, Strain/Indicator: TA98, Metabolic Activation: NONE, Method: STANDARD PLATE.
The mark [3] stands for this setting: Test System: AMES SALMONELLA TYPHIMURIUM, Strain/Indicator: TA100, Metabolic Activation: NONE, Method: PREINCUBATION
The mark [4] stands for this setting: Test System: AMES SALMONELLA TYPHIMURIUM, Strain/Indicator: TA100, Metabolic Activation: NONE, Method: STANDARD PLATE.
Setting [5] is: Test System: AMES SALMONELLA TYPHIMURIUM, Strain/Indicator: TA98, Metabolic Activation: RAT, LIVER, S-9, AROCLOR 1254, Method: STANDARD PLATE.
The mark [6] stands for this setting: Test System: AMES SALMONELLA TYPHIMURIUM, Strain/Indicator: TA100, Metabolic Activation: RAT, LIVER, S-9, AROCLOR 1254, Method: STANDARD PLATE.

Turning to `O=[N+]([O-])c1ccc(Cl)c([N+](=O)[O-])c1`, the mutagenic call was “active; positive” (Test System: AMES SALMONELLA TYPHIMURIUM, Strain/Indicator: TA98(1,8-DNP6), Metabolic Activation: NONE, Method: PREINCUBATION); “active; positive” (Test System: AMES SALMONELLA TYPHIMURIUM, Strain/Indicator: TA98(NR), Metabolic Activation: NONE, Method: PREINCUBATION); “active; positive” under setting [1]; “active; positive” under setting [2]; “active; positive” (Test System: AMES SALMONELLA TYPHIMURIUM, Strain/Indicator: TA98, Metabolic Activation: RAT LIVER S-9, AROCLOR 1254 (10%), Method: STANDARD PLATE); “active; positive” (Test System: AMES SALMONELLA TYPHIMURIUM, Strain/Indicator: TA98, Metabolic Activation: RAT, LIVER, S-9, KANECHLOR 500, Method: PREINCUBATION). The mutagenic call was “inactive; negative” (Test System: AMES SALMONELLA TYPHIMURIUM, Strain/Indicator: TA98NR/1,8-DNP6, Metabolic Activation: NONE, Method: STANDARD PLATE); “active; positive” (Test System: AMES SALMONELLA TYPHIMURIUM, Strain/Indicator: TA98NR, Metabolic Activation: NONE, Method: STANDARD PLATE); “active; positive” (Test System: AMES SALMONELLA TYPHIMURIUM, Strain/Indicator: TA100(NR), Metabolic Activation: NONE, Method: PREINCUBATION); “active; positive” (Test System: AMES SALMONELLA TYPHIMURIUM, Strain/Indicator: TA100/GSH-, Metabolic Activation: NONE, Method: PREINCUBATION); “active; positive” under setting [3]; “active; positive” under setting [4]. For the same molecule, the mutagenic call is, setting by setting: (Test System: AMES SALMONELLA TYPHIMURIUM, Strain/Indicator: TA100, Metabolic Activation: RAT, LIVER, S-9, KANECHLOR 500, Method: PREINCUBATION) “inactive; negative”; (Test System: AMES SALMONELLA TYPHIMURIUM, Strain/Indicator: YG1021, Metabolic Activation: NONE, Method: STANDARD PLATE) “active; positive”; (Test System: AMES SALMONELLA TYPHIMURIUM, Strain/Indicator: YG1024, Metabolic Activation: NONE, Method: STANDARD PLATE) “active; positive”; (Test System: Ames Salmonella typhimurium, Strain/Indicator: TA98, Metabolic Activation: None, Method: Preincubation) “active; positive”; (Test System: Ames Salmonella typhimurium, Strain/Indicator: TA98, Metabolic Activation: Rat, Liver, S9, Sodium phenobarbital and 5,6-benzoflavone (10%), Method: Preincubation) “active; positive”; (Test System: Ames Salmonella typhimurium, Strain/Indicator: TA100, Metabolic Activation: None, Method: Preincubation) “active; positive”. Also, the mutagenic call (Test System: Ames Salmonella typhimurium, Strain/Indicator: TA100, Metabolic Activation: Rat, Liver, S9, Sodium phenobarbital and 5,6-benzoflavone (10%), Method: Preincubation) was “active; positive”; the mutagenic call (Test System: Ames Salmonella typhimurium, Strain/Indicator: TA1535, Metabolic Activation: None, Method: Preincubation) was “active; positive”; the mutagenic call (Test System: Ames Salmonella typhimurium, Strain/Indicator: TA1535, Metabolic Activation: Rat, Liver, S9, Sodium phenobarbital and 5,6-benzoflavone (10%), Method: Preincubation) was “active; positive”; the mutagenic call (Test System: Ames Salmonella typhimurium, Strain/Indicator: TA1537, Metabolic Activation: Rat, Liver, S9, Sodium phenobarbital and 5,6-benzoflavone (10%), Method: Preincubation) is “active; positive”.

In the case of `Cc1occc(=O)c1[O-].Cc1occc(=O)c1[O-].Cc1occc(=O)c1[O-].[Cr+3]`, the mutagenic call (Test System: AMES SALMONELLA TYPHIMURIUM, Strain/Indicator: TA92, Metabolic Activation: NONE, Method: STANDARD PLATE) is “inactive; negative”; the mutagenic call under setting [2] was “inactive; negative”; the mutagenic call under setting [4] is “inactive; negative”; the mutagenic call (Test System: AMES SALMONELLA TYPHIMURIUM, Strain/Indicator: TA104, Metabolic Activation: NONE, Method: STANDARD PLATE) was “inactive; negative”.

Consider `Clc1c(Cl)c(Br)c2c(c1Cl)-c1nc-2nc2[n-]c(nc3nc(nc4[n-]c(n1)c1c(Cl)c(Br)c(Cl)c(Br)c41)-c1c(Cl)c(Cl)c(Br)c(Cl)c1-3)c1c(Br)c(Cl)c(Br)c(Cl)c21.[Cu+2]`, for which the mutagenic call is “active; positive” (Test System: AMES SALMONELLA TYPHIMURIUM, Strain/Indicator: TA98, Metabolic Activation: HAMSTER, LIVER, S-9, AROCLOR 1254 (10%), Method: PREINCUBATION); “inactive; negative” under setting [1]; “active; positive” (Test System: AMES SALMONELLA TYPHIMURIUM, Strain/Indicator: TA98, Metabolic Activation: RAT, LIVER, S-9, AROCLOR 1254 (10%), Method: PREINCUBATION); “inactive; negative” (Test System: AMES SALMONELLA TYPHIMURIUM, Strain/Indicator: TA100, Metabolic Activation: HAMSTER, LIVER, S-9, AROCLOR 1254 (10%), Method: PREINCUBATION); “inactive; negative” under setting [3]; “inactive; negative” (Test System: AMES SALMONELLA TYPHIMURIUM, Strain/Indicator: TA100, Metabolic Activation: RAT, LIVER, S-9, AROCLOR 1254 (10%), Method: PREINCUBATION). Moreover, the mutagenic call is “inactive; negative” (Test System: AMES SALMONELLA TYPHIMURIUM, Strain/Indicator: TA1535, Metabolic Activation: HAMSTER, LIVER, S-9, AROCLOR 1254 (10%), Method: PREINCUBATION); “inactive; negative” (Test System: AMES SALMONELLA TYPHIMURIUM, Strain/Indicator: TA1535, Metabolic Activation: NONE, Method: PREINCUBATION); “inactive; negative” (Test System: AMES SALMONELLA TYPHIMURIUM, Strain/Indicator: TA1535, Metabolic Activation: RAT, LIVER, S-9, AROCLOR 1254 (10%), Method: PREINCUBATION); “inactive; negative” (Test System: AMES SALMONELLA TYPHIMURIUM, Strain/Indicator: TA1537, Metabolic Activation: HAMSTER, LIVER, S-9, AROCLOR 1254 (10%), Method: PREINCUBATION); “inactive; negative” (Test System: AMES SALMONELLA TYPHIMURIUM, Strain/Indicator: TA1537, Metabolic Activation: NONE, Method: PREINCUBATION); “active; positive” (Test System: AMES SALMONELLA TYPHIMURIUM, Strain/Indicator: TA1537, Metabolic Activation: RAT, LIVER, S-9, AROCLOR 1254 (10%), Method: PREINCUBATION).

For `O=[N+]([O-])c1ccc2ccc3cccc4cc(O)c1c2c34`, the mutagenic call was “active; positive” under setting [2] and “active; positive” under setting [5].

`CCCCCC(O)CC(=O)CCC1CCC(O)C(OC)C1` (configuration not stated): the mutagenic call by setting is: under setting [2], “inactive; negative”; under setting [5], “inactive; negative”; under setting [4], “inactive; negative”; under setting [6], “active; positive”; (Test System: AMES SALMONELLA TYPHIMURIUM, Strain/Indicator: TA1535, Metabolic Activation: NONE, Method: STANDARD PLATE) “inactive; negative”; (Test System: AMES SALMONELLA TYPHIMURIUM, Strain/Indicator: TA1535, Metabolic Activation: RAT, LIVER, S-9, AROCLOR 1254, Method: STANDARD PLATE) “active; positive”. Moreover, the mutagenic call reads like this: (Test System: AMES SALMONELLA TYPHIMURIUM, Strain/Indicator: TA1538, Metabolic Activation: NONE, Method: STANDARD PLATE) “inactive; negative”; (Test System: AMES SALMONELLA TYPHIMURIUM, Strain/Indicator: TA1538, Metabolic Activation: RAT, LIVER, S-9, AROCLOR 1254, Method: STANDARD PLATE) “inactive; negative”.

On to `NC(=O)CCC(=O)Nc1cc(Cl)c(Cl)c(Cl)c1`, for which the mutagenic call is, setting by setting: under setting [2], “inactive; negative”; under setting [5], “inactive; negative”; under setting [4], “inactive; negative”; under setting [6], “inactive; negative”.
